Measured values published in publication PMC4712933, “Development of Follicle-Stimulating Hormone Receptor Binding Probes to Image Ovarian Xenografts” (Journal of biotechnology & biomaterials, 2015).
Where a SMILES comes first, the peptide text is derived from it. The star is where a group is joined. 5FAM = O=C1OC2(c3ccc(O)cc3Oc3cc(O)ccc32)c2ccc(C(=O)*)cc21

Columns and labels:
[1] = biological target: T1, FSHR on OVCAR-3 cells (Homo sapiens, UniProt P23945); experiment: Flow cytometry binding of BI-10^FAM to OVCAR-3 cells
T1 construct: endogenous in cells; host or cells: OVCAR-3 cells
T1 sequence (P23945 18-695): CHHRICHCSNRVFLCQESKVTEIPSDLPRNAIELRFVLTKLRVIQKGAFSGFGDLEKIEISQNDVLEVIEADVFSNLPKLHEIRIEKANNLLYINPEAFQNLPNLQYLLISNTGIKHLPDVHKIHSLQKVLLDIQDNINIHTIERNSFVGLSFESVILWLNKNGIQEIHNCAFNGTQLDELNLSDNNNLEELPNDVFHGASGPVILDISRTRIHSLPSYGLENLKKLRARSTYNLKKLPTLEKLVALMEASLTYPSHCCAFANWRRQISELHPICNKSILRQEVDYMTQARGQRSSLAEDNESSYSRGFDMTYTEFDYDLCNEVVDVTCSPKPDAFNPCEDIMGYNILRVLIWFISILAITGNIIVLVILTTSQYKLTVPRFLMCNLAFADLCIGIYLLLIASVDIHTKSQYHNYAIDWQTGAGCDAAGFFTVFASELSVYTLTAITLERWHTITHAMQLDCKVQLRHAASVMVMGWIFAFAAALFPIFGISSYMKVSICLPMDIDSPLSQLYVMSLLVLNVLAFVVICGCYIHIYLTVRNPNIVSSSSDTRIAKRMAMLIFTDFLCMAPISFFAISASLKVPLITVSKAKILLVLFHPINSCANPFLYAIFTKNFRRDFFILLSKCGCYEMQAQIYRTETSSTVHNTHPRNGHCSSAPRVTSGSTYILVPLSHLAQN
Experimental: OVCAR-3 cells (generously provided by Dr. Mellisa Fishell of Indiana University School of Medicine) were chosen for in vitro binding experiment due to its high level of FSHR expression. For the first 2–3 passages, the cells were plated in […] flasks using RPMI medium (supplemented with 5 μM Insulin (Sigma), 20% FBS (Hyclone), Sodium private (GIBCO), and Pen Strep (GIBCO)), and placed in an incubator (5% CO2 at a temperature of 37°C incubator) to maintain viability. For peptide binding experiments, cells were plated in six-well plates with the medium and environment conditions as previously described. Medium was changed every 2–3 days until cells reached more than 90% confluency. […] These samples were ready for imaging within the flow cytometer. […]
Each sample of OVCAR-3 cells was placed within the flow cytometer (Beckman Coulter FC500) and the FITC fluorescent intensity from the BI-10^FAM peptide bound to the OVCAR-3 cells were acquired. A TOPO-3 dye (Sigma) in 1 nM concentration was used to acquire the fluorescence from only viable cells in a two-color flow cytometry assay. Ten thousand cells were counted and the fluorescence measured in each sample. […] The EC50 value (binding affinity) and receptor saturation intensity were calculated using a nonlinear regression analysis using GraphPad Prism fitting algorithm (GraphPad Software, Inc.). […]

[2] = tested on: FSHR; conditions: low doses; cited from earlier work
Description: Their small effective hydrodynamic diameter, high washout rates, and rapid renal filtration are highly valued for in vivo imaging, where an optimal tumor-to-reference tissue ratio (TRR) can be quickly reached. This was de ...

[3] = tested on: FSHR-rich Sertoli cells; conditions: FSHR-rich Sertoli cells from Bovine Calf testes; ref 29 (Lee et al); read-out: EC50, radio-ligand binding assay; cited from earlier work
[4] = tested on: FSHR; conditions: cited from earlier work
Description: FSHR belongs to G protein-coupled receptor and consists of a transmembrane and an extracellular domain, where the former is characterized by a seven helical repeats and the latter by multiple leucine-rich repeats. FSHR is expressed on normal ovarian epithelium, e.g., the fallopian tubal epithelium, and shares about 70% transmembrane domain sequence with other G protein-coupled receptors, such as L ...

binding to FSHR, in words ([1]; BI-10 binding curves) | Molecule | EC50 ([1]; OVCAR-3 cells, BI-10^FAM, 30 min incubation, 37°C incubator, 1.0-500 μM, wash with PBS, 5 mM EDTA detachment, median FITC fluorescence, flow cytometry, TOPO-3 viable gate, 10,000 cells, nonlinear regression, R^2=0.93, average of three measurements (Figure 1: n=5), read-out: EC50 (binding affinity, dose response curve)) [µM] | physiologic effects [2] | EC50 [3] [µM] | binding to FSHR, in words ([4]; functional radio ligand receptor assay, synthetic BI-10) | inhibition of FSH-stimulated estradiol and cAMP synthesis, in words ([4]; synthetic BI-10 peptide, high concentrations)
 | CC(C)C[C@H](NC(=O)[C@H](CC(N)=O)NC(=O)[C@H](CCC(=O)O)NC(=O)[C@@H](NC(=O)c1ccc2c(c1)C(=O)OC21c2ccc(O)cc2Oc2cc(O)ccc21)[C@@H](C)O)C(=O)N[C@@H](CCC(=O)O)C(=O)N1CCC[C@H]1C(=O)N[C@@H](CC(N)=O)C(=O)NCC(=O)N[C@@H](CCC(=O)O)C(=O)NCC(N)=O [BI-10^FAM] (5FAM-TENLEPNGEG-NH2) | 160 | negligible physiologic effects when used in low doses |  |  | 
highly specific but low in affinity | TENLEPNGEGNH2 [BI-10] |  |  | ~300 | specifically binds to FSHR | inhibits FSH-stimulated estradiol and secondary messenger cAMP synthesis at high concentrations
